Results reported in the NIST ThermoML archive (doi:10.1021/je050513r).
± gives the expanded uncertainty stated by the source.

assay: refractive index (Na D-line) (dimensionless); settings: 293.1 K; 101.33 kPa; Liquid; Standard Abbe refractometry

Compared with `Cc1cc(C)cc(C)c1` [1,3,5-trimethylbenzene], `CN1CCCC1=O` [N-methylpyrrolidone] is lower in refractive index: 1.4992 ± 0.0007 for the first, 1.4686 ± 0.0007 for the second.

For `CCCCCCCCCCCCCCCC` [hexadecane], the refractive index was 1.4344 ± 0.0007.
